According to PubChem BioAssay AID1259407 (Chemical Carcinogenesis Research Information System (CCRIS), 2018):
Calls of active or inactive are those of the source. No rule for the calls is given here.

Test system: CCRIS mutagenicity, Ames/micronucleus/aberration tests
Assay: CCRIS mutagenicity studies
[1] = Test System: AMES SALMONELLA TYPHIMURIUM, Strain/Indicator: TA98, Metabolic Activation: NONE, Method: PREINCUBATION
[2] = Test System: AMES SALMONELLA TYPHIMURIUM, Strain/Indicator: TA98, Metabolic Activation: NONE, Method: STANDARD PLATE
[3] = Test System: AMES SALMONELLA TYPHIMURIUM, Strain/Indicator: TA98, Metabolic Activation: RAT LIVER S-9, PHENOBARBITAL AND BETA-NAPHTHOFLAVONE, Method: PREINCUBATION
[4] = Test System: AMES SALMONELLA TYPHIMURIUM, Strain/Indicator: TA100, Metabolic Activation: NONE, Method: PREINCUBATION
[5] = Test System: AMES SALMONELLA TYPHIMURIUM, Strain/Indicator: TA100, Metabolic Activation: NONE, Method: STANDARD PLATE
[6] = Test System: AMES SALMONELLA TYPHIMURIUM, Strain/Indicator: TA100, Metabolic Activation: RAT LIVER S-9, PHENOBARBITAL AND BETA-NAPHTHOFLAVONE, Method: PREINCUBATION
[7] = Test System: AMES SALMONELLA TYPHIMURIUM, Strain/Indicator: TA100, Metabolic Activation: RAT, LIVER, S-9, AROCLOR 1254, Method: STANDARD PLATE
[8] = Test System: AMES SALMONELLA TYPHIMURIUM, Strain/Indicator: TA102, Metabolic Activation: NONE, Method: PREINCUBATION
[9] = Test System: AMES SALMONELLA TYPHIMURIUM, Strain/Indicator: TA102, Metabolic Activation: RAT LIVER S-9, PHENOBARBITAL AND BETA-NAPHTHOFLAVONE, Method: PREINCUBATION
[10] = Test System: AMES SALMONELLA TYPHIMURIUM, Strain/Indicator: TA104, Metabolic Activation: NONE, Method: PREINCUBATION
[11] = Test System: AMES SALMONELLA TYPHIMURIUM, Strain/Indicator: TA104, Metabolic Activation: RAT LIVER S-9, PHENOBARBITAL AND BETA-NAPHTHOFLAVONE, Method: PREINCUBATION
[12] = Test System: AMES SALMONELLA TYPHIMURIUM, Strain/Indicator: TA1535, Metabolic Activation: NONE, Method: PREINCUBATION
[13] = Test System: AMES SALMONELLA TYPHIMURIUM, Strain/Indicator: TA1535, Metabolic Activation: NONE, Method: STANDARD PLATE
[14] = Test System: AMES SALMONELLA TYPHIMURIUM, Strain/Indicator: TA1535, Metabolic Activation: RAT LIVER S-9, PHENOBARBITAL AND BETA-NAPHTHOFLAVONE, Method: PREINCUBATION
[15] = Test System: AMES SALMONELLA TYPHIMURIUM, Strain/Indicator: TA1535, Metabolic Activation: RAT, LIVER, S-9, AROCLOR 1254, Method: STANDARD PLATE
[16] = Test System: AMES SALMONELLA TYPHIMURIUM, Strain/Indicator: TA1537, Metabolic Activation: NONE, Method: PREINCUBATION
[17] = Test System: AMES SALMONELLA TYPHIMURIUM, Strain/Indicator: TA1537, Metabolic Activation: NONE, Method: STANDARD PLATE
[18] = Test System: AMES SALMONELLA TYPHIMURIUM, Strain/Indicator: TA1537, Metabolic Activation: RAT LIVER S-9, PHENOBARBITAL AND BETA-NAPHTHOFLAVONE, Method: PREINCUBATION
[19] = Test System: AMES SALMONELLA TYPHIMURIUM, Strain/Indicator: TA1537, Metabolic Activation: RAT, LIVER, S-9, AROCLOR 1254, Method: STANDARD PLATE
[20] = Test System: AMES SALMONELLA TYPHIMURIUM, Strain/Indicator: TA1538, Metabolic Activation: NONE, Method: STANDARD PLATE
[21] = Test System: AMES SALMONELLA TYPHIMURIUM, Strain/Indicator: TA1538, Metabolic Activation: RAT, LIVER, S-9, AROCLOR 1254, Method: STANDARD PLATE
[22] = Test System: E.COLI, Strain/Indicator: WP2UVRA/PKM101, Metabolic Activation: NONE, Method: PREINCUBATION
[23] = Test System: E.COLI, Strain/Indicator: WP2UVRA/PKM101, Metabolic Activation: RAT LIVER S-9, PHENOBARBITAL AND BETA-NAPHTHOFLAVONE, Method: PREINCUBATION
[24] = Test System: E.COLI, Strain/Indicator: WP2UVRA, Metabolic Activation: NONE, Method: PREINCUBATION
[25] = Test System: E.COLI, Strain/Indicator: WP2UVRA, Metabolic Activation: RAT LIVER S-9, PHENOBARBITAL AND BETA-NAPHTHOFLAVONE, Method: PREINCUBATION

## Cc1ccc(N)c(S(=O)(=O)O)c1
Test System: AMES SALMONELLA TYPHIMURIUM, Strain/Indicator: TA98, Metabolic Activation: HAMSTER, LIVER, S-9, AROCLOR 1254, Method: STANDARD PLATE
  mutagenic call: inactive; negative
[1]
  mutagenic call: inactive; negative
[2]
  mutagenic call: inactive; negative
[3]
  mutagenic call: inactive; negative
Test System: AMES SALMONELLA TYPHIMURIUM, Strain/Indicator: TA98, Metabolic Activation: RAT, LIVER, S-9, AROCLOR 1254, Method: STANDARD PLATE
  mutagenic call: inactive; negative
Test System: AMES SALMONELLA TYPHIMURIUM, Strain/Indicator: TA100, Metabolic Activation: HAMSTER, LIVER, S-9, AROCLOR 1254, Method: STANDARD PLATE
  mutagenic call: inactive; negative
[4]
  mutagenic call: inactive; negative
[5]
  mutagenic call: inactive; negative
[6]
  mutagenic call: inactive; negative
[7]
  mutagenic call: inactive; negative
[8]
  mutagenic call: inactive; negative
[9]
  mutagenic call: inactive; negative
[10]
  mutagenic call: inactive; negative
[11]
  mutagenic call: inactive; negative
Test System: AMES SALMONELLA TYPHIMURIUM, Strain/Indicator: TA1535, Metabolic Activation: HAMSTER, LIVER, S-9, AROCLOR 1254, Method: STANDARD PLATE
  mutagenic call: inactive; negative
[12]
  mutagenic call: inactive; negative
[13]
  mutagenic call: inactive; negative
[14]
  mutagenic call: inactive; negative
[15]
  mutagenic call: inactive; negative
Test System: AMES SALMONELLA TYPHIMURIUM, Strain/Indicator: TA1537, Metabolic Activation: HAMSTER, LIVER, S-9, AROCLOR 1254, Method: STANDARD PLATE
  mutagenic call: inactive; negative
[16]
  mutagenic call: inactive; negative
[17]
  mutagenic call: inactive; negative
[18]
  mutagenic call: inactive; negative
[19]
  mutagenic call: inactive; negative
Test System: AMES SALMONELLA TYPHIMURIUM, Strain/Indicator: TA1538, Metabolic Activation: HAMSTER, LIVER, S-9, AROCLOR 1254, Method: STANDARD PLATE
  mutagenic call: inactive; negative
[20]
  mutagenic call: inactive; negative
[21]
  mutagenic call: inactive; negative
[22]
  mutagenic call: inactive; negative
[23]
  mutagenic call: inactive; negative
[24]
  mutagenic call: inactive; negative
[25]
  mutagenic call: inactive; negative
Test System: MOUSE LYMPHOMA, Strain/Indicator: L5178Y (TK+/TK-), Metabolic Activation: NONE, Method: SUSPENSION/PLATE
  mutagenic call: inactive; negative. reevaluation of results: negative
Test System: MOUSE LYMPHOMA, Strain/Indicator: L5178Y (TK+/TK-), Metabolic Activation: RAT, LIVER, S-9, AROCLOR 1254, Method: SUSPENSION/PLATE
  mutagenic call: inactive; negative. reevaluation of results: equivocal
Test System: UDS RODENT HEPATOCYTES, Strain/Indicator: THY INCORP (NON-S-PHASE), Metabolic Activation: NONE, Method: AUTORADIOGRAPHY
  mutagenic call: inactive; negative

## CC(=O)Nc1ccc2c(c1)[nH]c1ccccc12
[2]
  mutagenic call: active; positive
Test System: AMES SALMONELLA TYPHIMURIUM, Strain/Indicator: TA98, Metabolic Activation: RAT, LIVER, S-9, PHENOBARBITAL, Method: STANDARD PLATE
  mutagenic call: active; positive
[5]
  mutagenic call: inactive; negative
Test System: AMES SALMONELLA TYPHIMURIUM, Strain/Indicator: TA100, Metabolic Activation: RAT, LIVER, S-9, PHENOBARBITAL, Method: STANDARD PLATE
  mutagenic call: inactive; negative
[17]
  mutagenic call: inactive; negative
[20]
  mutagenic call: active; positive
Test System: AMES SALMONELLA TYPHIMURIUM, Strain/Indicator: TA1538, Metabolic Activation: RAT, LIVER, S-9, PHENOBARBITAL, Method: STANDARD PLATE
  mutagenic call: active; positive
Test System: AMES SALMONELLA TYPHIMURIUM, Strain/Indicator: TA1977, Metabolic Activation: NONE, Method: STANDARD PLATE
  mutagenic call: inactive; negative
Test System: AMES SALMONELLA TYPHIMURIUM, Strain/Indicator: TA1977, Metabolic Activation: RAT, LIVER, S-9, PHENOBARBITAL, Method: STANDARD PLATE
  mutagenic call: inactive; negative

## CCN(C=O)N=O
[13]
  mutagenic call: active; positive
Test System: E. COLI, Strain/Indicator: WU3610, Metabolic Activation: NONE, Method: SUSPENSION/PLATE
  mutagenic call: active; positive

## CC(Cl)CCl (stereo not drawn)
End Point: IN VITRO CHROMOSOMAL ABERRATIONS, Test System: CHINESE HAMSTER OVARY CELLS, Metabolic Activation: RAT, LIVER, S-9, AROCLOR 1254
  mutagenic call: active; positive
[1]
  mutagenic call: inactive; negative
[3]
  mutagenic call: inactive; negative
[4]
  mutagenic call: inactive; negative
[5]
  mutagenic call: active; positive
[6]
  mutagenic call: inactive; negative
[7]
  mutagenic call: active; positive
[8]
  mutagenic call: inactive; negative
[9]
  mutagenic call: inactive; negative
[10]
  mutagenic call: inactive; negative
[11]
  mutagenic call: inactive; negative
[12]
  mutagenic call: inactive; negative
[13]
  mutagenic call: active; positive
[14]
  mutagenic call: inactive; negative
[15]
  mutagenic call: active; positive
[16]
  mutagenic call: inactive; negative
[18]
  mutagenic call: inactive; negative
[22]
  mutagenic call: inactive; negative
[23]
  mutagenic call: inactive; negative
[24]
  mutagenic call: inactive; negative
[25]
  mutagenic call: inactive; negative

## OC1C2OC2=C2C=c3ccc4cccc5ccc(c3c54)C2C1O (stereo not drawn)
Test System: CHINESE HAMSTER V-79, Strain/Indicator: V-79/8-AZAGUANINE, Metabolic Activation: NONE, Method: STANDARD PLATE
  mutagenic call: active; positive

## COC(=O)[C@@H]1O[C@@H]1c1ccccc1
[2]
  mutagenic call: inactive; negative
[5]
  mutagenic call: active; positive
[7]
  mutagenic call: inactive; negative
[15]
  mutagenic call: inactive; negative
[19]
  mutagenic call: inactive; negative
[21]
  mutagenic call: inactive; negative

## Cc1c2c(cc3ccccc13)-c1ccccc1C1NC21 (stereo not drawn)
Test System: AMES SALMONELLA TYPHIMURIUM, Strain/Indicator: TA97, Metabolic Activation: NONE, Method: PREINCUBATION
  mutagenic call: active; positive
[1]
  mutagenic call: active; positive
[2]
  mutagenic call: active; positive
[5]
  mutagenic call: active; positive
[10]
  mutagenic call: active; positive
